Assay results from patent US5554641A, “Nonpeptides as tachykinin antagonists” (priority 1995, dated 1996).

The molecules below were run against T1, human NK3 receptor (Homo sapiens, UniProt P29371) (assay: In vitro human NK3 receptor binding assay ([125I]-[MePhe7]neurokinin B, CHO cell membranes)).
T1 construct: expressed in transfected cells; host or cells: CHO cell membranes
T1 sequence (P29371 1-465): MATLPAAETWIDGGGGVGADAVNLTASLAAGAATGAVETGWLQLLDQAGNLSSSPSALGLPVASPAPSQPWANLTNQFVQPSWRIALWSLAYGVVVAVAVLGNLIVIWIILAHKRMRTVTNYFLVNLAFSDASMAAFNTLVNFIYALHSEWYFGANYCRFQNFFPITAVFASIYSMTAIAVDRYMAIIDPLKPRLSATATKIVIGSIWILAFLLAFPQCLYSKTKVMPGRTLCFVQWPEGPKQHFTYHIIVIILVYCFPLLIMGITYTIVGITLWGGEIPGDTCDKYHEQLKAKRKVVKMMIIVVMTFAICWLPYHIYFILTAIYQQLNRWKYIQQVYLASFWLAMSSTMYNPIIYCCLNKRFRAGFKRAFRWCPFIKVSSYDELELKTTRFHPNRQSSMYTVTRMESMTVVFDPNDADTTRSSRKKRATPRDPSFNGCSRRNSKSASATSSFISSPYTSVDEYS

| SMILES | IC50 [µM] |
| --- | --- |
| CC(C)[C@H](OC(=O)N[C@](C)(Cc1ccccc1)C(=O)N[C@@H](Cc1ccc(O)cc1)C(=O)NCCCCCCCO)c1ccccc1 [Example 13, {1-[1-(7-Hydroxy-heptylcarbamoyl)-2-(4-hydroxy-phenyl)-ethylcarbamoyl]-1-methyl-2-phenyl-ethyl}-carbamic acid 2-methyl-1-phenyl-propyl ester] | 0.012 |
| CC(C)C(OC(=O)N[C@](C)(Cc1ccccc1)C(=O)NCCCCCCCCC(N)=O)c1ccc(Cl)cc1 (stereo partly shown) [Example 2, Carbamic acid, [2-[(9-amino-9-oxononyl)amino]-1-methyl-2-oxo-1-(phenylmethyl)ethyl]-, 1-(4-chlorophenyl)-2-methylpropyl ester] | 0.258 |
| CC(C)[C@H](OC(=O)N[C@](C)(Cc1ccccc1)C(=O)N[C@@H](Cc1ccc(O)cc1)C(=O)NCCCCCCO)c1ccccc1 [Example 12, {1-[1-(6-Hydroxy-hexylcarbamoyl)-2-(4-hydroxy-phenyl)-ethylcarbamoyl]-1-methyl-2-phenyl-ethyl}-carbamic acid 2-methyl-1-phenyl-propyl ester] | 0.015 |
| CC1(C)CCc2ccccc2C1OC(=O)N[C@](C)(Cc1ccccc1)C(=O)NCCCCCCCCC(N)=O (stereo partly shown) [Example 4, [1-(8-Carbamoyl-octylcarbamoyl)-1-methyl-2-phenyl-ethyl]-carbamic acid 2,2-dimethyl-1,2,3,4-tetrahydro-naphthalen-1-yl ester] | 0.102 |
| CC(C)C(OC(=O)N[C@](C)(Cc1ccccc1)C(=O)N[C@@H](C)c1ccccc1)c1ccc(F)cc1 (stereo partly shown) [Example 17, [1-Methyl-2-phenyl-1-(1-phenyl-ethylcarbamoyl)-ethyl]-carbamic acid 1-(4-fluoro-phenyl)-2-methyl-propyl ester] | 0.982 |
| CC(C)[C@@H](OC(=O)N[C@](C)(Cc1ccccc1)C(=O)NC(C)(C)c1ccccc1)c1ccccc1 [Example 15, [1-Methyl-1-(1-methyl-1-phenyl-ethylcarbamoyl)-2-phenyl-ethyl]-carbamic acid 2-methyl-1-phenyl-propyl ester] | 0.114 |

Second part, the molecule after the results:

| IC50 [µM] | SMILES |
| --- | --- |
| 0.094 | CC(C)[C@@H](OC(=O)N[C@](C)(Cc1ccccc1)C(=O)N[C@@H](CO)c1ccccc1)c1ccccc1 [Example 16, [1-(2-Hydroxy-1-phenyl-ethylcarbamoyl)-1-methyl-2-phenyl-ethyl]-carbamic acid 2-methyl-1-phenyl-propyl ester] |
| 0.018 | C[C@](Cc1ccccc1)(NC(=O)OC1CCCCc2ccccc21)C(=O)NCCCCCCCCC(N)=O (stereo partly shown) [Example 5, [1-(8-Carbamoyl-octylcarbamoyl)-1-methyl-2-phenyl-ethyl]-carbamic acid 6,7,8,9-tetrahydro-5H-benzocyclohepten-5-yl ester] |
| 0.061 | CC1(C)CCCc2ccccc2C1OC(=O)N[C@](C)(Cc1ccccc1)C(=O)NCCCCCCCCC(N)=O (stereo partly shown) [Example 6, [1-(8-Carbamoyl-octylcarbamoyl)-1-methyl-2-phenyl-ethyl]-carbamic acid 6,6-dimethyl-6,7,8,9-tetrahydro-5H-benzocyclohepten-5-yl ester] |
| 0.091 | CC(C)[C@H](OC(=O)NC(C)(Cc1cc2ccccc2o1)C(=O)NCCCCCCCNC(N)=O)c1ccccc1 (single isomer, unassigned) [Example 10] |
| 0.052 | CC(C)[C@H](OC(=O)N[C@](C)(Cc1ccccc1)C(=O)NCCCCCCCCC(N)=O)c1ccccc1 [Example 1, Carbamic acid, [2-[(9-amino-9-oxononyl)amino]-1-methyl-2-oxo-1-(phenylmethyl)ethyl]-, 2-methyl-1-phenylpropyl ester, [R-(R*,S*)]-] |
| 0.03 | CC(C)C(OC(=O)NC(C)(Cc1cccc(F)c1F)C(=O)NCCCOCCCNC(N)=O)c1ccccc1 (stereo not shown) [Example 11, {2-(2,3-Difluoro-phenyl}-1-methyl-1-[3-{3-ureido-propoxy)-propylcarbamoyl]-ethyl}-carbamic acid 2-methyl-1-phenyl-propyl ester] |
| 0.04 | C[C@](Cc1ccccc1)(NC(=O)OC(c1ccccc1)C1CCCC1)C(=O)NCCCCCCCCC(N)=O (stereo partly shown) [Example 3, [1-(8-Carbamoyl-octylcarbamoyl)-1-methyl-2-phenyl-ethyl]-carbamic acid cyclopentyl-phenyl-methyl ester] |
